The values that follow are results of earlier work, collected in patent US20090233885A1, “Compositions and Methods for Fat Reduction” (priority 2006, published 2009).

For series [1] the following is noted: total administered amount per treatment.

Consider phosphatidylcholine [PC], for which, in series [1], the “total administered amount above which cholinergic side effects (nausea, vomiting, diarrhea, flushing, sweating, bradycardia) occur” value is listed as “exceeds 2000 mg per treatment”. With sodium deoxycholate [DC], the “cell specificity of effect” value in the series on adipose and muscle cells was “nonspecific effects on both adipose and muscle cells”.
